For experiment [1], the target named is DRAK2 (Homo sapiens (Human), UniProt O94768). The experiment can be described thus: DRAK2 kinase activity inhibition (ADP-Glo, MRCL3 peptide substrate). The format is biochemical. To be noted: for DRAK2 selectivity (DRAK2 versus DRAK1) / DRAK2 IC50 compared with Comparative Examples 7 and 8 (n is 0): result in words; for DRAK2 selectivity (DRAK2 versus DRAK1): from Table 4; for DRAK2 IC50 compared with Comparative Examples 7 and 8 (n is 0): from Table 5. As to the method:
(§1) DRAK1 and DRAK2 recombinant proteins were purchased from SignalChem Inc. To measure the kinase enzyme activity, the ADP-Glo™ kit provided by Promega Inc. was used. Buffer A used in the kinase reaction was composed of 60 mM Tris-Cl (pH 7.5), 30 mM MgCl2 and 0.15% BSA. Just before the experiment, 1 mM DTT was prepared by diluting 1 M solution and added thereto.
(§2) To measure the DRAK1 and DRAK2 activity, the substrate MRCL3 peptide and ATP were mixed with the enzymes. After an appropriate period of time, the reaction product ADP was quantitatively analyzed.
(§3) The buffer solution A was used to make a 3× substrate solution of 3× concentration so that the final concentrations of ATP and MRCL3 peptides were 1 uM, respectively, and 2.5 μl of each solution was dispensed into Optiplate 384 (perkin-elmer) microplate.
(§4) The final concentrations of ATP and MRCL3 peptide were made to be 1 uM respectively by using buffer A, followed by preparing a 3× substrate solution. The prepared substrate solution was distributed in Optiplate 384 (Perkin-Elmer) microplate (2.5 ul/well). Then, the compounds of Examples 1˜39 and the compounds of Comparative Examples 1-6, whose concentrations were tripled by the final concentration were distributed thereto (2.5 ul/well). Lastly, DRAK1 or DRAK2 enzyme solution, properly diluted by using buffer A, was added thereto (2.5 ul/well). Centrifugation was performed at 800 rpm for 1 minute, and then enzyme reaction was induced at 30° C.
(§5) 2 hours later, the enzyme reaction was terminated. To eliminate residual ATP, ADP-Glo™ reagent contained in ADP-Glo™ was added to each well at the concentration of 7.5 ul, which was the same amount as the sum of the previously added reagents, followed by centrifugation at the same RPM and time as the above. Additional reaction was induced at room temperature for 40 minutes. To convert the ADP produced by the kinase activity to ATP, 15 ul of kinase detection buffer was added to each well, followed by centrifugation. Five minutes after the centrifugation was completed, the luminescence value of the reaction product was determined using Envision, and the enzyme activity inhibition effect of the compound was measured. Then, IC50 of each compound was determined using Prism program.
(§6) The compounds of Example 1 and Example 19 were used as the experimental group and the compound of Comparative Example 6 was used as the control.
To evaluate DRAK2 inhibition activity of the compound represented by formula 1 according to the number of n, the experiment was performed with the compounds of Example 1, Example 19, Example 40, Comparative Example 7 and W Comparative Example 8 by the same manner as described in Experimental Example 1, leading to the measurement of IC50 to DRAK2.
On the technique in general: ADP-Glo turns the ADP formed in a reaction into a luminescent signal.

The target of experiment [2] is DRAK1 (Homo sapiens (Human), UniProt Q9UEE5). The experiment can be described thus: DRAK1 kinase activity inhibition (ADP-Glo, MRCL3 peptide substrate). Format: biochemical. How it is done: as §1, §2, §3, §4, §5, §6
[3] abbreviates: Table 3, recombinant enzyme, 1 uM ATP, 1 uM MRCL3 peptide, 30° C., 2 hours.
Setting [4] is: Table 4, Experimental Example 2, DRAK2 selectivity evaluation.
[5] abbreviates: Table 5, Experimental Example 3, according to the number of n.

The values below come from US10647686B2, “Substituted pyrimidines for preventing or treating cancer and inflammatory diseases” (KOREA RESEARCH INSTITUTE OF CHEMICAL TECHNOLOGY, priority 2016, dated 2020).

DRAK2, sequence (O94768 whole entry): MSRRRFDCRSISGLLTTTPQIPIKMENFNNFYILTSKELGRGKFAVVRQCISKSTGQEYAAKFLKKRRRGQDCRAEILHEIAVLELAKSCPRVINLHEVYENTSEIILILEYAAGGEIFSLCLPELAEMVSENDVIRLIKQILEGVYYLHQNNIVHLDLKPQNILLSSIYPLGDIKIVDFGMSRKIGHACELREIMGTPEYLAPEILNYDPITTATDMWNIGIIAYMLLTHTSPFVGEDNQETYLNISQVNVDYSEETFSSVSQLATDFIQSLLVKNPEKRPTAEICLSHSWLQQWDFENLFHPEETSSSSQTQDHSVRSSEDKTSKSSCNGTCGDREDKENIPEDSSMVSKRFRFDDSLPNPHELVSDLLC
DRAK1, sequence (Q9UEE5 whole entry): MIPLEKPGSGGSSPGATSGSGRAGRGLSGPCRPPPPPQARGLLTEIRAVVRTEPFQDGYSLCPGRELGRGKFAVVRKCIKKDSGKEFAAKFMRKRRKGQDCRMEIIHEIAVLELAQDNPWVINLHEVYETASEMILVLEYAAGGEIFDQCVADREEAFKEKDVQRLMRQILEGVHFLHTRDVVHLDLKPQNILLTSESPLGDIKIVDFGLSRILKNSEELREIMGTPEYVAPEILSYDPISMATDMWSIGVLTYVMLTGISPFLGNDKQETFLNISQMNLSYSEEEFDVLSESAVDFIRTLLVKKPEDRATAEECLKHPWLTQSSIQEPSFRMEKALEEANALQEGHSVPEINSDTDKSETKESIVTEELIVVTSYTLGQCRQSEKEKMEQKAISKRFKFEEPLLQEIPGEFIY

In the case of `Cc1cnc(Nc2ccc(Cl)cc2)nc1NCCCN` [Example 19, N4-(3-aminopropyl)-N2-(4-chlorophenyl)-5-methylpyrimidine-2,4-diamine], the IC50 in experiment [1] (setting [3]) stood at 23 nM; in experiment [1] (setting [4]), 23 nM; in experiment [1] (setting [5]), 23 nM; in experiment [2] (setting [3]), 710 nM; in experiment [2] (setting [4]), 710 nM. Moreover, in experiment [1], the “DRAK2 selectivity (DRAK2 versus DRAK1)” value was “excellent DRAK2 selectivity”. Besides, in experiment [1], the “DRAK2 IC50 compared with Comparative Examples 7 and 8 (n is 0)” value was “significantly lower IC50”.
Take `NCCCNc1nc(Nc2ccc(S(=O)(=O)c3ccc([N+](=O)[O-])cc3)cc2)ncc1Cl` [Example 13, N4-(3-aminopropyl)-5-chloro-N2-(4-(4-nitrophenylsulfonyl)phenyl)pyrimidine-2,4-diamine]: the figures for the IC50 in experiment [1] (setting [3]) and in experiment [2] (setting [3]) were 14 nM and 110 nM, respectively.
For the molecule `NCCCNc1nc(Nc2ccc3c(c2)CCC3)ncc1Cl` [Example 21, N4-(3-aminopropyl)-5-chloro-N2-(2,3-dihydro-1H-indene-5-yl)pyrimidine-2,4-diamine], the half-inhibitory concentration (IC50) in experiment [1] (setting [3]) is 21 nM; in experiment [2] (setting [3]), 220 nM.
The like results for `Cc1ccc(Nc2ncc(Cl)c(NCCCN)n2)cc1Cl` [Example 6, N4-(3-aminopropyl)-5-chloro-N2-(3-chloro-4-methylphenyl)pyrimidine-2,4-diamine] were, in that order, 24 nM and 220 nM.
As for `NCCCNc1nc(Nc2ccc(Br)cc2)ncc1Cl` [Example 17, N4-(3-aminopropyl)-N2-(4-bromophenyl)-5-chloropyrimidine-2,4-diamine], the IC50 in experiment [1] (setting [3]) came to 23 nM; in experiment [2] (setting [3]), 390 nM.
In the same order, the values of `NCCCNc1nc(Nc2ccc(F)c(C(F)(F)F)c2)ncc1Cl` [Example 15, N4-(3-aminopropyl)-5-chloro-N2-(4-fluoro-3-(trifluoromethyl)phenyl)pyrimidine-2,4-diamine] are 26 nM and 180 nM.
On to `Cc1ccc(Nc2ncc(Cl)c(NCCCN)n2)cc1C` [Example 14, N4-(3-aminopropyl)-5-chloro-N2-(3,4-dimethylphenyl)pyrimidine-2,4-diamine], for which the IC50 was 37 nM in experiment [1] (setting [3]) and 220 nM in experiment [2] (setting [3]).
Turning to `NCCCNc1nc(Nc2ccc(Cl)cc2)ncc1Br` [Comparative Example 6, reference compound], the IC50 in experiment [1] (setting [3]) is 27 nM; in experiment [1] (setting [4]), 27 nM; in experiment [2] (setting [3]), 40 nM; in experiment [2] (setting [4]), 40 nM. Also, the “DRAK2 selectivity (DRAK2 versus DRAK1)” value in experiment [1] was “displayed both DRAK1 and DRAK2 inhibition activity”.
For the molecule `NCCCNc1nc(Nc2ccc(F)c(Cl)c2)ncc1Cl` [Example 7, N4-(3-aminopropyl)-5-chloro-N2-(3-chloro-4-fluorophenyl)pyrimidine-2,4-diamine], the values for the IC50 in experiment [1] (setting [3]) and in experiment [2] (setting [3]) were 70 nM and 200 nM, respectively.
Take `NCCCNc1nc(Nc2ccc3c(c2)CCCC3)ncc1Cl` [Example 23, N4-(3-aminopropyl)-5-chloro-N2-(5,6,7,8-tetrahydronaphthalene-2-yl)pyrimidine-2,4-diamine]: the results for the IC50 in experiment [1] (setting [3]) and in experiment [2] (setting [3]) were 15 nM and 160 nM, respectively.
On to `NCCCNc1nc(Nc2ccc(Br)c(C(F)(F)F)c2)ncc1Cl` [Example 16, N4-(3-aminopropyl)-N2-(4-bromo-3-(trifluoromethyl)phenyl)-5-chloropyrimidine-2,4-diamine], for which the half-inhibitory concentration (IC50) came out at 34 nM in experiment [1] (setting [3]) and 740 nM in experiment [2] (setting [3]).
Take `NCCCCNc1nc(Nc2ccc(Cl)cc2)ncc1Cl` [Example 40, N4-(4-n-aminobutyl)-N2-(4-chlorophenyl)-5-chloropyrimidine-2,4-diamine]: the values for the 50% inhibitory concentration (IC50) in experiment [1] (setting [3]), in experiment [1] (setting [5]) and in experiment [2] (setting [3]) were 47 nM, 47 nM and 480 nM, respectively. Besides, the “DRAK2 IC50 compared with Comparative Examples 7 and 8 (n is 0)” value in experiment [1] was “significantly lower IC50”.
Regarding `CCCCCCc1ccc(Nc2ncc(Cl)c(NCCCN)n2)cc1` [Example 12, N4-(3-aminopropyl)-5-chloro-N2-(4-hexylphenyl)pyrimidine-2,4-diamine], the values for the IC50 in experiment [1] (setting [3]) and in experiment [2] (setting [3]) were 56 nM and 1900 nM, respectively.
As for `NCCCNc1nc(Nc2ccc3c(c2)CCCC3=O)ncc1Cl` [Example 24, 6-(4-(3-aminopropylamino)-5-chloropyrimidine-2-ylamino)-3,4-dihydronaphthalene-1(2H)-one], the IC50 worked out at 19 nM in experiment [1] (setting [3]) and 230 nM in experiment [2] (setting [3]).
Turning to `NCCCNc1nc(Nc2ccc3c(c2)OCO3)ncc1Cl` [Example 20, N4-(3-aminopropyl)-N2-(benzo[d][1,3]dioxol-5-yl)-5-chloropyrimidine-2,4-diamine], the IC50 in experiment [1] (setting [3]) was determined as 16 nM; in experiment [2] (setting [3]), 350 nM.
As for `NCCCNc1nc(Nc2ccc(Cl)cc2)ncc1Cl` [Example 1, N4-(3-aminopropyl)-5-chloro-N2-(4-chlorophenyl)pyrimidine-2,4-diamine], the IC50 was found to be 38 nM in experiment [1] (setting [3]); 38 nM in experiment [1] (setting [4]); 32 nM in experiment [1] (setting [5]); 410 nM in experiment [2] (setting [3]); 410 nM in experiment [2] (setting [4]). Besides, the “DRAK2 selectivity (DRAK2 versus DRAK1)” value in experiment [1] is given as “excellent DRAK2 selectivity”. In addition, the “DRAK2 IC50 compared with Comparative Examples 7 and 8 (n is 0)” value in experiment [1] is recorded as “significantly lower IC50”.

Broadly, the IC50 is the concentration needed to halve the response being measured.
